Converted amounts (≈) assume the structure as drawn. Where two headings read alike, the source gives them in different places. *1 amine or outer side, *2 acyl side, *3 side chain or, on linkers, in order; H or OH if unused. Where a SMILES comes first, the peptide text is derived from it. Bridges are numbered along the chain shown (N, C = ends). [ ]: non-standard residue; d: D form. ξ: configuration not given here. Adda = CO[C@@H](Cc1ccccc1)[C@@H](C)/C=C(C)/C=C/[C@H](N[*:1])[C@H](C)C(=O)[*:2]; Trp(2-yl) = O=C([C@H](Cc1c([*:3])[nH]c2ccccc12)N[*:1])[*:2]; dAsp(3S-Me) = C[C@H](C(=O)[*:3])[C@@H](N[*:1])C(=O)[*:2]; ξTrp(2-yl) = O=C(C(Cc1c([*:3])[nH]c2ccccc12)N[*:1])[*:2]; Leu(4R-OH,5-OH) = C[C@](O)(CO)C[C@H](N)C(=O)O; d(γGlu) = O=C(O)[C@@H](CCC(=O)[*:2])N[*:1]; X1 = CC(O)(CO)CC(N[*:1])C(=O)[*:2]; cisHyp = O=C(O)[C@@H]1C[C@H](O)CN1; ξAsp(3ξ-OH) = NC(C(=O)O)C(O)C(=O)O; Hyp = O=C(O)[CH]1C[CH](O)CN1; NMeDha = C=C(NC)C(=O)O
What was measured:
[1] = tested on: mAb AMA9G3; test: indirect competitive ELISA (cELISA) with mAb AMA9G3; format: binding, mouse; conditions: for working range of detection (estimated as IC30 to IC80): AMA9G3
[2] = tested on: mAb AMA9C12; test: indirect competitive ELISA (cELISA) with mAb AMA9C12; format: binding, mouse
[3] = tested on: polyclonal antibody (pAb); conditions: Bühlmann Assay ref 15; cited from earlier work
[4] = tested on: mAb; conditions: another mAb, different coupling strategy ref 16; cited from earlier work
[5] = tested on: single chain variable fragment of a mAb; conditions: single chain variable fragment of a mAb ref 24; cited from earlier work
[6] = tested on: mice; conditions: mice ref 6; cited from earlier work
[7] = tested on: humans; conditions: humans ref 7; cited from earlier work
[8] = mAb AMA9G3, coating antigen PERI-AMA-BSA, triplicate
[9] = mAb AMA9G3, (IC50 α-AMA)/(IC50 test inhibitor) × 100
[10] = mAb AMA9C12, coating antigen PERI-AMA-BSA, triplicate
[11] = mAb AMA9C12, (IC50 α-AMA)/(IC50 test inhibitor) × 100

| SMILES | IC50 [1, 8] | Cross Reactivity (%) [1, 9] | IC50 [2, 10] | Cross Reactivity (%) [2, 11] | Cross Reactivity (%) [3] | further results |
| --- | --- | --- | --- | --- | --- | --- |
| CC1NC(=O)C2CC(O)CN2C(=O)C2CSc3[nH]c4ccccc4c3CC(NC1=O)C(=O)NC(CC(C)(O)CO)C(=O)NC(C(C)C)C(=O)NC(C(O)C(=O)O)C(=O)N2 (stereo not drawn) [phallacidin] (cyclo([ξAsp(3ξ-OH)]C[Hyp]A[ξTrp(2-yl)][X1]V); thioether 2-5; configuration not given here) | >1 µg/mL | <0.3% | >1 µg/mL | <0.3% | Not detected | – |
| N[C@H](C(=O)O)c1cc(=O)[nH]o1 [ibotenic acid] | >1 µg/mL | <0.3% | >1 µg/mL | <0.3% | – | – |
| C/C=C1/C(=O)N[C@@H](C(=O)O)[C@H](C)C(=O)N[C@@H](CCCNC(=N)N)C(=O)N[C@@H](/C=C/C(C)=C/[C@H](C)[C@H](Cc2ccccc2)OC)[C@H](C)C(=O)N[C@@H](C(=O)O)CCC(=O)N1C [nodularin] | – | – | – | – | – | Cross Reactivity (%) [1]: <0.3%; IC50 [1]: >1 µg/mL; Cross Reactivity (%) [2]: <0.3%; IC50 [2]: >1 µg/mL |
| CC[C@H](C)[C@@H]1NC(=O)CNC(=O)[C@@H]2Cc3c([nH]c4cc(O)ccc34)[S+]([O-])C[C@H](NC(=O)CNC1=O)C(=O)N[C@@H](CC(=O)O)C(=O)N1CC(O)C[C@H]1C(=O)N[C@@H]([C@@H](C)[C@@H](O)CO)C(=O)N2 (stereo partly drawn) [β-amanitin] | 0.0242 ± 0.0062 µg/mL (≈ 0.0263 µM) | 6.5% | >1 µg/mL | <0.3% | 0.1% | working range of detection (estimated as IC30 to IC80) [1]: 0.0036 to 0.1291 µg/mL; competitive inhibition / binding (in words) ([1]; mAb AMA9G3): competitively inhibited; IC50 ([1]; mAb AMA9G3, coating antigen PERI-AMA-BSA, triplicate, listed as β-AMA): 0.024 µg/mL (≈ 0.0261 µM); competitive inhibition / binding (in words) ([2]; mAb AMA9C12): no reduction in signal response; IC50 [4]: 0.097 µg/mL (≈ 0.105 µM); IC50 [5]: 0.115 µg/mL (≈ 0.125 µM) |
| C[C@@H]1NC(=O)[C@H](C[C@@](C)(O)CO)NC(=O)[C@@H]2Cc3c([nH]c4ccccc34)SC[C@H](NC(=O)[C@@H]([C@H](C)O)NC1=O)C(=O)N1C[C@@H](O)C[C@H]1C(=O)N[C@@H](C)C(=O)N2 [phalloidin] (cyclo(A[dT]C[cisHyp]A[Trp(2-yl)][Leu(4R-OH,5-OH)]); thioether 3-6) | >1 µg/mL | <0.3% | >1 µg/mL | <0.3% | Not detected | – |
| C=C1C(=O)N[C@H](C)C(=O)N[C@@H](CC(C)C)C(=O)N[C@@H](C(=O)O)[C@H](C)C(=O)N[C@@H](CCCNC(=N)N)C(=O)N[C@@H](/C=C/C(C)=C/[C@H](C)[C@H](Cc2ccccc2)OC)[C@H](C)C(=O)N[C@@H](C(=O)O)CCC(=O)N1C [microcystin-LR] (R[Adda][d(γGlu)][NMeDha][dA]L[dAsp(3S-Me)]-OH; lactam N-7) | – | – | – | – | – | Cross Reactivity (%) [1]: <0.3%; IC50 [1]: >1 µg/mL; Cross Reactivity (%) [2]: <0.3%; IC50 [2]: >1 µg/mL |
| NCc1cc(=O)[nH]o1 [muscimol] | >1 µg/mL | <0.3% | >1 µg/mL | <0.3% | – | – |
| CC[C@H](C)[C@@H]1NC(=O)CNC(=O)[C@@H]2Cc3c([nH]c4cc(O)ccc34)[S@+]([O-])C[C@H](NC(=O)CNC1=O)C(=O)N[C@@H](CC(N)=O)C(=O)N1C[C@H](O)C[C@H]1C(=O)N[C@@H]([C@@H](C)[C@@H](O)CO)C(=O)N2 [α-amanitin] | 0.00157 ± 7e-05 µg/mL (≈ 0.00171 µM) | 100% | 0.00266 ± 0.00018 µg/mL (≈ 0.00289 µM) | 100% | 100% | working range of detection (estimated as IC30 to IC80) [1]: 0.0007 to 0.0031 µg/mL; competitive inhibition / binding (in words) ([1]; mAb AMA9G3): competitively inhibited; IC50 ([1]; mAb AMA9G3, coating antigen PERI-AMA-BSA, triplicate, listed as α-AMA): ≈ 1.6 ng mL^−1; competitive inhibition / binding (in words) ([2]; mAb AMA9C12): competitively inhibited; IC50 [4]: 0.066 µg/mL (≈ 0.0718 µM); IC50 [5]: 0.077 µg/mL (≈ 0.0838 µM); LD50 [6]: 0.1 mg/kg; dose severely toxic [7]: 0.3 mg/kg |
| CN(C)CCc1c[nH]c2cccc(OP(=O)(O)O)c12 [psilocybin] | >1 µg/mL | <0.3% | >1 µg/mL | <0.3% | – | – |
